Data on 25 compounds can be found in patent US4472400A, “Triazoloquinazolones having antihistaminic and bronchospasmolytic activity” (Roussel Uclaf, priority 1981, dated 1984).

Where two headings read alike, the source gives them in different places.

The test system of assay [1] is histamine induced resistance change. In words: Measurement of Pulmonary Compliance and Resistance (RMG), histamine induced resistance change. The format is in vivo, guinea pig (male Dunkin Hartley). The conditions noted are these: Cavia porcellus, iv; anaesthetised guinea-pigs (Hypnorm/Valium), gallamine pre-treated; compound via right jugular vein; forced oscillation; read-out: RMG ED50 (effective dose required to reduce the histamine induced resistance change by 50%). As for the experimental part:
(B) Measurement of Pulmonary Compliance and Resistance (RMG)
Male Dunkin Hartley guinea-pigs weighing between 400 and 650 g were anaesthetised with a combination of Hypnorm (1 ml/kg i.m.) and Valium (5 mg/kg i.p.). The trachea was cannulated and cannulae were inserted into the right jugular vein for the administration of compounds and left carotid artery for blood pressure measurement.
The animals were ventilated at a tidal volume of 6-8 ml and 10-12 cmH2 0 distension pressure was obtained. The respiratory rate was adjusted to 40-50/min. The animals were pre-treated with gallamine triethiodide (4 mg/kg i.v.) to maintain paralysis of respiratory muscles. Oxygen enrichment was applied to the inspiratory limb of the ventilator.
Respiratory resistance was measured by forced oscillation (Clay and Hughes 1980). Sinusodal wave forms of pressure were divided by flow at constant lung volumes to detect resistance changes. Sine wave production was achieved by a loudspeaker driven at 6-7 Hz through a pressure transducer, pneumotachograph and differential pressure transducer to detect pressure and flow contributions of the wave form. […] Drugs and analysis of activity were as described for the Konzett Rossler technique. Ref. Clay, T. P. and Hughes, J. M. B. (1980) J. Physiol. 308 427-437. The results given in Table V show the effective dose of each of the test compounds required to reduce the histamine induced resistance change by 50%.

In assay [2] the test system is histamine-induced bronchoconstriction. In words: Effects on histamine-induced bronchoconstriction in anaesthetised guinea pigs (KRG). The format is in vivo, guinea pig (male Dunkin Hartley). Particulars: Cavia porcellus, iv, read-out: KRG ED50 (effective dose required to reduce the histamine-induced constriction in lung air volume by 50%).
Description: (A) Effects on histamine-induced bronchoconstriction in anaesthetised guinea pigs (KRG)
Male Dunkin Hartley guinea-pigs weighing 350-650 grams were anaesthetised with urethane (25% w/v solution in distilled water at 7.0 ml/kg i.p). […] The animals were ventilated with a ventilatory pump, stroke volume of 8 ml and frequency of 52 to maintain a lung inflation pressure of 10 cm of H2 O. Blood pressure was measured via a cannula in the right carotid artery connected to a Statham blood pressure transducer and a Devices M2 recorder. The test compounds were administered via the cannulated left jugular vein and washed in with 0.1 ml of 0.9% w/w NaCl in distilled water. The test product was administered immediately before the histamine which was used as the agonist.
Respiratory changes were recorded via a differential transducer connected to an SE 905 transducer/converter which in turn was connected to a Devices M2 recorder.
The mark [3] stands for this setting: anaesthetised guinea-pigs (urethane), test compound i.v. (jugular vein) immediately before histamine.

A word on the ED50: it is the dose at which the effect has come halfway, by size or by number of responders. Consider `CCCn1c(=O)c2ccccc2n2c(CN(CC)CC)nnc12` [Example 2], for which the ED50 in assay [1] was determined as 0.5 mg/kg.
For the compound `CCCn1c(=O)c2ccccc2n2c(CNC3CCCCC3)nnc12` [Example 11], the ED50 in assay [2] (setting [3]) came out at 1.8 mg/kg.
Still for that read-out and setting: with `CCCn1c(=O)c2ccccc2n2c(CN3CCCC3)nnc12` [Example 4] the figure was 2 mg/kg; with `CCCn1c(=O)c2ccccc2n2c(CN3CCN(c4ccccc4)CC3)nnc12` [Example 6], 5 mg/kg.
The same measure, in the same setting: as for `CC(C)n1c(=O)c2ccccc2n2c(CN3CCCCC3)nnc12` [Example 19], the figure is 0.185 mg/kg.
`CCCn1c(=O)c2ccccc2n2c(CN3CC4CCC(CC4)C3)nnc12` [Example 7]: in assay [2], the ED50 was 0.33 mg/kg.
With `CC(C)n1c(=O)c2ccccc2n2c(CN3CCCCCC3)nnc12` [Example 20], the median effective dose (ED50) in assay [2] (setting [3]) is 0.8 mg/kg.
Turning to `CCOC(=O)N1CCN(Cc2nnc3n(C)c(=O)c4ccccc4n23)CC1` [Example 25], the ED50 in assay [1] came to 3.5 mg/kg; in assay [2] (setting [3]) it was 5 mg/kg.
As to `C=CCn1c(=O)c2ccccc2n2c(CN3CCCCC3)nnc12` [Example 33, 4-allyl-1-piperidinomethyl[1,2,4]triazolo[4,3-a]quinazolin-5(4H)-one], the ED50 in assay [2] (setting [3]) worked out at 0.31 mg/kg.
In the case of `CN1CCN(Cc2nnc3n(C)c(=O)c4ccccc4n23)CC1` [Example 27], the ED50 in assay [1] was found to be 0.8 mg/kg.
For the compound `CCCn1c(=O)c2ccccc2n2c(CN3CCCCC3)nnc12.Cl.O` [Example 1, 1-Piperidinomethyl-4-n-propyl[1,2,4]triazolo[4,3-a]quinazolin-5(4H)-one hydrochloride, monohydrate], the ED50 in assay [2] (setting [3]) is 0.12 mg/kg.
The same measure, in the same setting: as for `CCCn1c(=O)c2ccccc2n2c(CN3CC(C)CC(C)C3)nnc12` (centres unmarked) [Example 8], the figure is 1 mg/kg.
Consider `CCCn1c(=O)c2ccccc2n2c(CN3CCCCCC3)nnc12` [Example 5], for which the ED50 in assay [1] is 0.3 mg/kg; in assay [2] (setting [3]), 0.096 mg/kg.
The matching figures for `CCCCn1c(=O)c2ccccc2n2c(CN3CCCCC3)nnc12` [Example 21, 1-piperidinomethyl-4-n-butyl[1,2,4]triazolo[4,3-a]quinazolin-5(4H)-one]: 0.15 mg/kg and 0.11 mg/kg.
Take `CCCNCc1nnc2n(CCC)c(=O)c3ccccc3n12` [Example 10]: the 50% effective dose (ED50) in assay [2] (setting [3]) stood at 1.97 mg/kg.
As to `CCN(CC)Cc1nnc2n(CC)c(=O)c3ccccc3n12` [Example 30], the ED50 in assay [1] was found to be 1 mg/kg.
`CCCn1c(=O)c2ccccc2n2c(CN3CCN(C)CC3)nnc12` [Example 3]: the ED50 in assay [2] (setting [3]) came to 5.28 mg/kg.
On to `O=c1c2ccccc2n2c(CN3CCCCC3)nnc2n1-c1ccccc1` [Example 31], for which the 50% effective dose (ED50) in assay [2] (setting [3]) was 0.58 mg/kg.
`CCN(CC)Cc1nnc2n(C)c(=O)c3ccccc3n12` [Example 26]: the results for the ED50 in assay [1] and in assay [2] (setting [3]) were 1 mg/kg and 3.75 mg/kg, respectively.
In the case of `CCCCNCc1nnc2n(CCC)c(=O)c3ccccc3n12` [Example 12], the ED50 in assay [2] (setting [3]) came to 1.3 mg/kg.
Turning to `CCn1c(=O)c2ccccc2n2c(CN3CCCCC3)nnc12` [Example 29, 1-piperidinomethyl-4-ethyl[1,2,4]triazolo[4,3-a]quinazolin-5 (4H)-one], the figures for the ED50 in assay [1] and in assay [2] (setting [3]) were 0.5 mg/kg and 0.35 mg/kg, respectively.
The matching figures for `Cn1c(=O)c2ccccc2n2c(CN3CCOCC3)nnc12` [Example 24]: 1.8 mg/kg and 2.76 mg/kg.
`CCCCN(CCCC)Cc1nnc2n(CCC)c(=O)c3ccccc3n12` [Example 14]: the 50% effective dose (ED50) in assay [2] (setting [3]) amounted to 2.9 mg/kg.
In the case of `Cn1c(=O)c2ccccc2n2c(CN3CCCCC3)nnc12` [Example 23], the ED50 in assay [1] was 1 mg/kg; in assay [2] (setting [3]), more than 1 mg/kg.
On to `CCCCn1c(=O)c2ccccc2n2c(CN3CCCCCC3)nnc12` [Example 22, 1-(2,3,4,5,6,7,-hexahydroazepino)methyl-4-n-butyl[1,2,4]triazolo[4,3-a] quinazolin-5(4H)-one], for which the ED50 in assay [2] (setting [3]) was found to be 0.84 mg/kg.
